Experimental findings from US5658917A, “Isoquinolines having adenosine uptake inhibitor activity” (Kyowa Hakko Kogyo Co., Ltd., priority 1993, dated 1997) are described below.

Data set [1] concerns [^3 H]-adenosine uptake by washed erythrocytes. Description: Inhibitory effect on [^3 H]-adenosine uptake (washed erythrocytes). The class given is cell-based, human (healthy male adult). The conditions noted are these: Erythrocyte; human washed erythrocytes; 1 hour preincubation at room temperature; 10 seconds uptake; read-out: [^3 H]-Adenosine Uptake Inhibition IC50. The protocol:
Test Example 1 Inhibitory Effect on [^3 H]-Adenosine Uptake
[…] To 100 μl of an erythrocyte suspension (2.5×10^9 /ml) was added 10 μl of a 21% DMSO solution of a test compound. After allowing the suspension to stand at room temperature for 1 hour, 100 μl of a [^3 H]-adenosine solution was added thereto. Ten seconds later, 200 μl of a dilazep solution (1 mg/ml) was added to stop the reaction. The erythrocytes were dissolved in Triton X-100, and the uptake amount of ^3 H was measured with a liquid scintillation counter. The concentration of the test compound which inhibits the [^3 H]-adenosine uptake by 50% (IC50) was calculated.

Data set [2] deals with T1, [^3 H]-Nitrobenzylthioinosine (NBI) binding, cerebral cortex tissue homogenate (Cavia porcellus, UniProt H0V4R7).
T1 construct: The cerebral cortex of a male guinea pig of Hartley strain was homogenized; from tissue; host or cells: guinea pig (male, Hartley strain) cerebral cortex, washed membrane suspension
T1 sequence (H0V4R7 1-461): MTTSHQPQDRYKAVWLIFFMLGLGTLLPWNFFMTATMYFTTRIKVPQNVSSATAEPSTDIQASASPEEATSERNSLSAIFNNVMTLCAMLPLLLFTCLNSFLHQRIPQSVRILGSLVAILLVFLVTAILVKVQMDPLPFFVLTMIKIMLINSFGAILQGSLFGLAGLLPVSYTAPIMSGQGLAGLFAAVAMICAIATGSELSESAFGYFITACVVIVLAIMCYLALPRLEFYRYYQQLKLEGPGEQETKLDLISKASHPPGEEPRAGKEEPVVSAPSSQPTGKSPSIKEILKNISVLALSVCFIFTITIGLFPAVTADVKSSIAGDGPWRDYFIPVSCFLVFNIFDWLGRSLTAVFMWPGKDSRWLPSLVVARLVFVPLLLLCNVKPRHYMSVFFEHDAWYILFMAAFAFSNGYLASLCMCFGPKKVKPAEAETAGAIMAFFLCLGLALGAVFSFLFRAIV
Briefly: Inhibitory effect on [^3 H]-nitrobenzylthioinosine (NBI) binding. On the set-up: species or system guinea pig (Hartley strain, male). The settings on record: guinea pig cerebral cortex; 1.5 nM [^3 H]-NBI; 25° C., 30 minutes; Cheng-Prusoff. The protocol:
Test Example 2 Inhibitory Effect on [^3 H]-Nitrobenzylthioinosine (NBI) Binding (an indication of adenosine uptake inhibitory activity)
The cerebral cortex of a male guinea pig of Hartley strain was homogenized with an ice-cooled 50 mM tris-HCl buffer (pH 7.4) in an amount of 25 times (w/v) that of the tissue. The homogenate was centrifuged (30,000×g, 4° C., 20 mins.), and the supernatant was discarded. To the precipitate was added the same amount of the buffer, followed by homogenization and then centrifugation in the same manner as above. The obtained precipitate was suspended in 20 times as much buffer as the precipitate to prepare a suspension for testing.
To a DMSO solution of a test compound were added 1.5 nM of [^3 H]-NBI and 5 mg (wet basis) of the tissue homogenate, and the mixture was allowed to stand at 25° C. for 30 minutes. To the mixture was added 4 ml of an ice-cooled buffer, followed by rapid filtration with suction through a glass filter (GF/C, produced by Whatman Ltd.) or a Ready filter (produced by Beckman Co.) to stop the reaction. The filter was transferred to a scintillation vial, and after drying, Scintisol EX-H was added thereto. The radioactivity was measured with a liquid scintillation counter. The binding inhibitory activity was expressed in terms of an inhibition constant (Ki value) as calculated according to Cheng-Prusoff's formula.

The nature of data set [3]: Inhibitory effect on ischemic paw edema in mice. The data set is classed as in vivo, mouse (ddY-strain, male). The settings on record: 30 mg/kg orally 1 hour before 20 min ischemia; for Paw Edema Supression Rate After 20 minutes: 20 minutes after blood recirculation; for Paw Edema Supression Rate After 40 minutes: 40 minutes after blood recirculation; for Paw Edema Supression Rate After 60 minutes: 60 minutes after blood recirculation. The source says:
Test Example 3 Inhibitory Effect on Ischemic Paw Edema in Mice
Ischemia followed by reperfusion in the limb of a mouse induces paw edema due to membrane injury in which active oxygen is involved [Arzneim.-Forsch., 41, 469-474 (1991)]. In general, peroxidation of membrane lipid and calcium influx into cells play roles in ischemia-reperfusion injury [Life Science, 29, 1289-1295 (1981); Japan J. Pharmacol., 52, 553-562 (1990)]. It is active oxygen production that triggers these factors, and the source of active oxygen includes endothelial cells and leukocytes [J. Mol. Cell Cardiol., 20 (Suppl. II), 55-63 (1988); Blood, 73, 301-306 (1989)]. […] J. Physiol., 257, H1334-1339 (1989); J. Immunol., 135, 1366-1371 (1985)]. Accordingly, it is believed that a compound effective on an ischemic podedema model in mice as hereinafter described would provide a convenient and useful model for evaluating an adenosine uptake inhibitor.
Experiments were conducted in accordance with the method described in Arzneim.-Forsch., 41, 469-474 (1991). A test compound was suspended in water and orally given to grouped male mice of ddY-strain weighing 25 to 30 g at a dose of 30 mg/kg. One hour later, the left hind limb was bound with a rubber band for 20 minutes to cause ischemia, and 20, 40 and 60 minutes after blood recirculation, the paw thickness was measured with a pair of calipers (Digimatic Caliper manufactured by Mitsutoyo K.K.). The paw edema was determined as the difference in thickness between the left hind paw (ischemia-treated) and the non-treated right one. Each result was expressed in terms of percent suppression of edema in a test compound group on the basis of the edema in a control group.

A further data set concerns ddY-strain male mice. Description: Acute toxicity test. The class given is in vivo. The conditions noted are these: mortality seven days after administration. The text has this: Test Example 4 Acute Toxicity Test
A test compound was intraperitoneally or orally administered to groups of ddY-strain male mice weighing 20±1 g, each group consisting of three mice.

For orientation: IC50 means the concentration that gives 50% inhibition. As for `COc1cc2ncnc(N3CCC(n4c(=O)c5cc(C(C)=O)ccc5n(C)c4=O)CC3)c2cc1OC` [Compound 63, 6-Acetyl-3-[1-(6,7-dimethoxy-4-quinazolinyl)-4-piperidinyl]-1,2,3,4-tetrahydro-1-methyl-2,4-dioxo-quinazoline], the IC50 in data set [1] was 88 nM.

One may read the Ki as the equilibrium dissociation constant of an inhibitor or competing ligand from its target. A high value points to a looser hold on the target. The molecule `COc1cc2ncnc(N3CCC(n4c(=O)c5cc(Br)ccc5n(C)c4=O)CC3)c2cc1OC` [Compound 45, 6-Bromo-3-[1-(6,7-dimethoxy-4-quinazolinyl)-4-piperidinyl]-1,2,3,4-tetrahydro-1-methyl-2,4-dioxo-quinazoline] displayed a Ki in data set [2] of 6.9 nM. Besides, the IC50 in data set [1] was 54 nM.

The molecule `COc1cc2ncnc(N3CCC(n4c(=O)c5cc(C)ccc5n(C)c4=O)CC3)c2cc1OC` [Compound 50, 3-[1-(6,7-Dimethoxy-4-quinazolinyl)-4-piperidinyl]-1,2,3,4-tetrahydro-1,6-dimethyl-2,4-dioxoquinazoline] gave a Ki in data set [2] of 12 nM. In data set [1], the IC50 stood at 54 nM.

Consider `CCOC(=O)Cn1c(=O)n(C2CCN(c3ncnc4cc(OC)c(OC)cc34)CC2)c(=O)c2cc([N+](=O)[O-])ccc21` [Compound 6, 3-[1-(6,7-Dimethoxy-4-quinazolinyl)-4-piperidinyl]-1-ethoxycarbonylmethyl-1,2,3,4-tetrahydro-6-nitro-2,4-dioxoquinazoline], for which the IC50 in data set [1] stood at 462 nM.

For the molecule `CCn1c(=O)n(C2CCN(c3ncnc4cc(OC)c(OC)cc34)CC2)c(=O)c2cc([N+](=O)[O-])ccc21` [Compound 2, 3-[1-(6,7-Dimethoxy-4-quinazolinyl)-4-piperidinyl]-1-ethyl-1,2,3,4-tetrahydro-6-nitro-2,4-dioxoquinazoline], in data set [3], the “Paw Edema Supression Rate After 20 minutes” value is recorded as 4.1 ± 2.98%, the “Paw Edema Supression Rate After 40 minutes” value is given as 9.0 ± 3.79% and the “Paw Edema Supression Rate After 60 minutes” value is 15.5 ± 4.09%. The same molecule displayed a Ki in data set [2] of 18 nM. Moreover, in data set [1], the IC50 amounted to 103 nM. In addition, in the data set on ddY-strain male mice, the “minimum lethal dose (MLD) i.p.” value is above 100 mg/kg and the “minimum lethal dose (MLD) p.o.” value is listed as above 300 mg/kg.

Turning to `COc1cc2nc(C)nc(N3CCC(n4c(=O)c5cc(C)ccc5n(C)c4=O)CC3)c2cc1OC` [Compound 80, 3-[1-(6,7-Dimethoxy-2-methyl-4-quinazolinyl)-4-piperidinyl]-1,2,3,4-tetrahydro-1,6-dimethyl-2,4-dioxo-quinazoline], in data set [1], the 50% inhibitory concentration (IC50) is 127 nM.

`COc1ccc2c(c1)c(=O)n(C1CCN(c3ncnc4cc(OC)c(OC)cc34)CC1)c(=O)n2C` [Compound 69, 3-[1-(6,7-Dimethoxy-4-quinazolinyl)-4-piperidinyl]-1,2,3,4-tetrahydro-6-methoxy-1-methyl-2,4-dioxo-quinazoline]: the Ki in data set [2] amounted to 11 nM. Besides, in data set [1], the IC50 turned out to be 157 nM.

In the case of `CCCn1c(=O)n(C2CCN(c3ncnc4cc(OC)c(OC)cc34)CC2)c(=O)c2cc([N+](=O)[O-])ccc21` [Compound 3, 3-[1-(6,7-Dimethoxy-4-quinazolinyl)-4-piperidinyl]-1,2,3,4-tetrahydro-6-nitro-2,4-dioxo-1-propyl-quinazoline], in data set [3], the “Paw Edema Supression Rate After 20 minutes” value is 4.8 ± 4.40%, the “Paw Edema Supression Rate After 40 minutes” value came out at 11.6 ± 2.68% and the “Paw Edema Supression Rate After 60 minutes” value is on record as 14.9 ± 3.58%. In addition, the Ki in data set [2] came to 4.3 nM. For the same molecule, the IC50 in data set [1] was found to be 62 nM. In addition, in the data set with ddY-strain male mice, the “minimum lethal dose (MLD) i.p.” value was above 100 mg/kg and the “minimum lethal dose (MLD) p.o.” value is recorded as above 300 mg/kg.

Regarding `COc1cc2ncnc(N3CCC(n4c(=O)[nH]c5ccc([N+](=O)[O-])cc5c4=O)CC3)c2cc1OC` [Compound 24, 3-[1-(6,7-Dimethoxy-4-quinazolinyl)-4-piperidinyl]-1,2,3,4-tetrahydro-6-nitro-2,4-dioxoquinazoline], the affinity in data set [2] corresponds to a Ki of 15 nM. Also, the IC50 in data set [1] is 38 nM.

Regarding `COc1cc2ncnc(N3CCC(n4c(=O)c5cc([N+](=O)[O-])ccc5n(Cc5ccccc5)c4=O)CC3)c2cc1OC` [Compound 8, 1-Benzyl-3-[1-(6,7-dimethoxy-4-quinazolinyl)-4-piperidinyl]-1,2,3,4-tetrahydro-6-nitro-2,4-dioxo-quinazoline], in data set [1], the IC50 amounted to 295 nM.

Take `CCCc1ccc2c(c1)c(=O)n(C1CCN(c3ncnc4cc(OC)c(OC)cc34)CC1)c(=O)n2C` [Compound 55, 3-[1-(6,7-Dimethoxy-4-quinazolinyl)-4-piperidinyl]-1,2,3,4-tetrahydro-1-methyl-2,4-dioxo-6-propyl-quinazoline]: in data set [1], the IC50 was found to be 171 nM.

For `COc1cc2ncnc(N3CCC(n4c(=O)c5cc([N+](=O)[O-])ccc5n(C)c4=O)CC3)c2cc1OC` [Compound 1, 3-[1-(6,7-Dimethoxy-4-quinazolinyl)-4-piperidinyl]-1,2,3,4-tetrahydro-1-methyl-6-nitro-2,4-dioxoquinazoline], the Ki in data set [2] turned out to be 18 nM. Besides, in data set [1], the IC50 amounted to 42 nM.
